Assays:
[1] = Thermogravimetric analysis (TGA); type: physicochemical
Experimental: TGA data were collected on a TA Instruments Q500 TGA, equipped with a 16-position auto-sampler. The instrument was temperature calibrated using certified Alumel™ and Nickel. Typically 5-10 mg of each sample was loaded onto a pre-tared aluminum DSC pan and heated at 10° C./min from ambient temperature to 350° C. A nitrogen purge at 60 ml/min was maintained over the sample.
TG analyses were performed using a TA Instruments Q5000 IR thermogravimetric analyzer. Temperature calibration was performed using nickel and Alumel™. Each sample was placed in an aluminum pan. The sample was hermetically sealed, the lid pierced, then inserted into the TG furnace. The furnace was heated under nitrogen.

[2] = Cocrystal screen of marizomib; type: physicochemical

C[C@@]12OC(=O)[C@]1([C@@H](O)[C@@H]1C=CCCC1)NC(=O)[C@@H]2CCCl [marizomib]
weight loss (TGA) ([1]; solids from 2-pyrrolidone (1:1) cocrystal experiment, from 27.1° C. to 92.0° C.): 5.0%
weight loss (TGA) ([1]; solids from Melamine (1:1) cocrystal experiment, from 30.2° C. to 104.0° C.): 10.3%
weight loss (TGA) ([1]; solids from Melamine (1:1) cocrystal experiment, from 30.2° C. to 146.0° C.): C. 21.1%
Cocrystal formation ([2]; about 117 experiments, 46 coformers/counterions): cocrystal formation did not occur
XRPD Results ([2]; coformer (2-hydroxypropyl)-β-cyclodextrin (1:1), MeOH/acetone, slurry 50° C. 2 days, supernatant decanted, SE, RT): MRZ
XRPD Results ([2]; coformer (2-hydroxypropyl)-β-cyclodextrin (2:1), H2O/ACN, slurry 50° C. 2 days, slurry RT 6 days, SE, RT): MRZ
XRPD Results ([2]; coformer Acetic acid (1:2), acetone, stir, RT, 5 days, cool 2-8° C., 3 days, SE, RT): MRZ
XRPD Results ([2]; coformer Acetic acid (large excess), slurry, RT): MRZ
XRPD Results ([2]; coformer Adenine (1:1), EtOH, slurry, RT, 5 days): MRZ
XRPD Results ([2]; coformer Benzoic acid (1:5), MEK:MIBK (20:80), slurry, RT, 7 days): MRZ
XRPD Results ([2]; coformer Benzoic acid (2:1), EtOAc, SE, RT): MRZ
XRPD Results ([2]; coformer Caffeine (1:3), DMF:anisole (25:75), slurry, RT, 6 days): Caffeine
XRPD Results ([2]; coformer DL-malic acid (1:3), dioxane, slurry 60° C. O/N, stir RT 1 day, FE, RT): MRZ
XRPD Results ([2]; coformer Gentisic acid (1:1), t-BuOH, slurry, 50° C., 2 days): MRZ
XRPD Results ([2]; coformer Gentisic acid (1:5), MEK:IPA (20:80), slurry, RT, 6 days): MRZ
XRPD Results ([2]; coformer Gentisic acid (2:1), ACN, FC, 60° C. to RT): MRZ
XRPD Results ([2]; coformer Glutaric acid (1:3), EtOH, slurry, RT, 6 days): MRZ
XRPD Results ([2]; coformer Glycolic acid (1:2), acetone, SE, RT): MRZ
XRPD Results ([2]; coformer Hydantoin (1:1), 2:1 dioxane:H2O, slurry, RT): MRZ
XRPD Results ([2]; coformer Hydantoin (1:3), H2O/ACN, slurry 60° C. overnight, stir RT 1 day): MRZ
XRPD Results ([2]; coformer L-Serine (1:1), H2O/THF, stir RT 3 days, SE, RT): MRZ
XRPD Results ([2]; coformer L-Serine (1:3), H2O/MeOAc, slurry 60° C. O/N, stir RT 1 day, FE, RT): MRZ
XRPD Results ([2]; coformer L-alanine (1:1), MeOH, slurry 60° C. O/N, slurry RT 1 day): MRZ
XRPD Results ([2]; coformer L-arginine (1:1), HFIPA/dioxane, stir, RT, ~25 minutes): MRZ
XRPD Results ([2]; coformer L-ascorbic acid (1:1), IPA/MeOH at 50° C., FC to RT): MRZ
XRPD Results ([2]; coformer L-cysteine (1:1), grind ~10 minutes, EtOH/dioxane (50/50), temperature cycle RT and 50° C.): MRZ
XRPD Results ([2]; coformer L-lysine (1:1), HFIPA/THF, stir, RT, ~35 minutes): MRZ
XRPD Results ([2]; coformer L-proline (sat'd in IPA at 50° C.), added to MRZ at 50° C., temp cycle (50° C.-RT)): MRZ
XRPD Results ([2]; coformer L-proline sat'd in H2O/MeOH 50/50 v/v, slurry 50° C. 2 days, slurry RT 3 days): L-proline
XRPD Results ([2]; coformer Maleic acid (1:1), nitromethane, SC, 50° C. to RT): MRZ
XRPD Results ([2]; coformer Maleic acid (1:3), 1-PrOH, slurry, RT, 6 days): MRZ
XRPD Results ([2]; coformer Nicotinamide (1:1), ACN, FC, 70° C. to RT): MRZ
XRPD Results ([2]; coformer Orotic acid (2:1), nitromethane, slurry, 50° C., 6 days): MRZ
XRPD Results ([2]; coformer Oxalic acid (1:2), EtOH/MEK, stir, RT, 7 days): MRZ
XRPD Results ([2]; coformer Saccharin (1:1), IPA, FC, 70° C. to RT): MRZ
XRPD Results ([2]; coformer Salicylic acid (1:1), EtOAc:toluene (50:50), FC, 75° C. to RT): MRZ
XRPD Results ([2]; coformer Salicylic acid (1:3), EtOH/MIBK, stir, RT): MRZ
XRPD Results ([2]; coformer Succinic acid (1:2), MeOH/acetone, stir, RT, 5 days): MRZ
XRPD Results ([2]; coformer Thymine (1:1), MeOH/EtOAc, slurry 50° C. 2 days, slurry RT 6 days): Thymine
XRPD Results ([2]; coformer Urea (2:1), EtOAc, FC, 50° C. to RT): MRZ

Reference: patent US10703760B2, “Morphic forms of marizomib and uses thereof” (Celgene International II Sàrl, priority 2016, dated 2020)
